# From patent publication US10358469B2, “Methods and pharmaceutical compositions for the treatment of cancer” (INSERM (INSTITUT NATIONAL DE LA SANTÉ ET DE LA RECHERCHE …, priority 2014, dated 2019)
# What was measured:
# HaCat cells = assay: Propidium iodide (PI) uptake, flow cytometry, HaCat cells; assay type: cell-based; conditions: 10 μM, absence of 10% FBS, FIG. 4A
# Method: FIG. 4: Antp-AAC-11-LZ (363-399) peptide induced necrotic cell death under low serum conditions. (A) SeAx or HaCat cells cultured in the absence of 10% FBS were left untreated or treated with 4 μM or 10 μM, respectively, of the Antp-AAC-11-LZ (363-399) peptide for the indicated durations. Cells were then analyzed by flow cytometry for PI staining. The results represent the mean number of PI-positive cells±S.D. from at least three independent experiments. (B) A549 and HaCat cells were plated at a densities of 4.5×10^3 in 96 well plates (100 μL total volume per well) and allowed to attach overnight in a 37° C. incubator (5% CO2). Media was removed from cells and replaced with media containing 10 μM Antp-AAC-11-LZ (363-399) peptide (100 μL total volume per well) peptide and the plates were incubated for the indicated durations. Lactate dehydrogenase (LDH) activity released in the culture medium was then assessed and data expressed as a percentage of the maximal level (Max) of LDH activity determined after total cell lysis±S.D. from at least three independent experiments.
# Cell death was evaluated upon staining with propidium iodide and flow cytometry analysis.
# We therefore evaluated necrotic cell death of SeAx cells treated with the Antp-AAC-11-LZ (363-399) peptide by PI uptake assay following different time exposures. […]
# [1] = tested on: Karpas 1106, SU-DHL-5, SeAx and HUT-78 cells; assay: Cell viability (MTS) of hematologic cancer cell lines under low serum; assay type: cell-based; conditions: increasing concentrations, 24 hours, low serum conditions (0.5-5%), FIG. 1A
# Method: (A) Karpas 1106, SU-DHL-5, SeAx and HUT-78 cells were plated at a densities of 6×10^3 in 96 well plates (100 μL total volume per well) and treated for 24 hours in a 37° C. incubator (5% CO2) with increasing concentrations of the Antp-AAC-11-LZ (363-399). 20 μL MTS reagent was then added to each well and plates were incubated for an additional 4 hours. Absorbance was measured at 490 nm using a 96-well plate reader. The extent to which the Antp-AAC-11-LZ (363-399) peptide inhibited cell proliferation was calculated as a percentage of the absorbance in each well containing the Antp-AAC-11-LZ (363-399) peptide relative to wells containing no peptide (negative control). […]
# Viability of cells cultured in the 96-well culture plates was assessed by measuring mitochondrial dehydrogenase activity, using the colorimetric CellTiter 96® AQueous One Solution Cell Proliferation Assay (Promega), according to the manufacturer′ instructions. […] The color can then be quantified using a simple colorimetric assay. The results are read on a multiwall scanning spectrophotometer (ELISA reader).
# The inventors evaluated the capacity of the Antp-AAC-11-LZ (363-399) peptide to induce cell death a panel of hematologic and solid tumor cell lines, both P53 positive and P53 negative, derived from different tissues of origin, under low serum conditions (0.5-5%). […]
substance,measurement,setting,value
Ac-RQIKIWFKKQNRRMKWKKAKLNAEKLKDFKIRLQYFARGLQVYIRQLRLALQGKT-NH2 [Antp-AAC-11-LZ (363-399)],loss of cell membrane integrity (PI uptake) in nonmalignant cells,HaCat cells,much decreased loss of cell membrane integrity
same,loss of cellular viability,[1],drastic loss of cellular viability
